Values of other authors as cited in US20220313663A1, “ELTROMBOPAG DOSING REGIMEN” (NOVARTIS PHARMACEUTICALS CORPORATION, priority 2019, published 2022).

Settings: subjects with Asian ancestry compared to the non-Asian population

eltrombopag clearance (CL/F): lower
Structure (SMILES): CC1=NN(c2ccc(C)c(C)c2)C(=O)/C1=N\Nc1cccc(-c2cccc(C(=O)O)c2)c1O [eltrombopag]
